Experimental data reported in US9353100B2, “Macrocyclic serine protease inhibitors, pharmaceutical compositions thereof, and their use for treating HCV infections” (Idenix Pharmaceuticals LLC, priority 2011, dated 2016).
Where two headings read alike, the source gives them in different places.

Legend:
[1] = tested on: HCV genotype 1b Con1 strain subgenomic luciferase replicon (Zluc) in Huh-7 cells; assay: HCV luciferase replicon assay, genotype 1b (Zluc); assay type: cell-based; conditions: genotype 1b Con1 replicon, Huh-7 (Zluc), 72 hours, read-out: EC50 Against Relpicon 1b
Procedure: (§1) General procedure: The HCV luciferase replicon assay measures the ability of a test compound to inhibit HCV replication in cell culture after 3 days of treatment in a human hepatoma cell line (Huh-7) bearing a HCV replicon containing a luciferase-neomycin phosphotransferase fusion gene. The inhibition of HCV replication was measured by quantification of luciferase protein expression. Briefly, Huh-7 cells containing either the HCV genotype 1a H77 strain or genotype 1b Con1 strain subgenomic luciferase replicon (H1a-luc or Zluc, respectively) were grown in DMEM containing glucose, L-glutamine and sodium pyruvate, 10% fetal bovine serum (FBS), 100 IU/mL penicillin, 100 μg/mL streptomycin, 2 mM GlutaMAX, non-essential amino acids and 0.25 (H1a-luc) or 0.5 (Zluc) mg/mL G418. GlutaMAX was obtained from Invitrogen, Corp.; all other media reagents were obtained from Mediatech, Inc. For dose-response testing, the cells were seeded in 96-well plates at 1×10^4 (H1a-luc) or 7.5×10^3 (Zluc) cells/well in a volume of 50 μL and incubated at 37° C./5% CO2. Three hours after plating, 50 μL of ten 5-fold serial dilutions of compound were added, and cell cultures were incubated at 37° C./5% CO2 for 72 hours. In all cases, Huh-7 cells lacking the HCV replicon served as negative control. To assess luciferase expression, the media/compound was removed from the plates and ONE-glo Luciferase assay reagent (Promega) was added to each well. The assay plates were shaken for 3 minutes at room temperature and luciferase activity for each well was measured with a 1 sec read time on the Victor^3V multilabel counter using a 700 nm cut-off filter (Perkin Elmer). EC50 values were calculated from dose response curves from the resulting best-fit equations determined by Microsoft Excel and XLfit 4.1 software.

[2] = tested on: Zluc cells; assay: Cytotoxicity evaluation, Cell Titer 96 AQueous One Solution; assay type: cell-based, human; conditions: cellular viability
Procedure: (§2) For cytotoxicity evaluation, Zluc cells were treated with compounds as described above and cellular viability was monitored using the Cell Titer 96 AQueous One Solution Cell Proliferation Assay (Promega). Plates were then read at 490 nm in a Victor^3V 1420 multilabel counter (Perkin Elmer) and CC50 concentrations were determined using Microsoft Excel and XLfit 4.1 software.

[3] = target: T1, HCV NS3-NS4A protease 1b (Hepatitis C virus genotype 1b, UniProt Q9WMX2); assay: HCV protease assay (FRET peptide), genotype 1b; assay type: biochemical
T1 construct: HCV NS3-NS4A protease, which was produced according to the method of Taremi et al; made in house
Procedure: (§3) General procedure: Measurement of the inhibitory effect of compounds on HCV protease activity was performed using the HiLyte Fluor™ TR/QXL™ 610 FRET peptide from AnaSpec, Inc. (San Jose, Calif.) under conditions developed in-house using 2-3 nM HCV NS3-NS4A protease, which was produced according to the method of Taremi et al. (Protein Science, 1998, 7, 2143-2149). The compounds were tested at a variety of concentrations in assay buffer containing a final DMSO concentration of 5%. Reactions were allowed to proceed for 60 min at 30° C. and fluorescence measurements were recorded with a PerkinElmer Victor^3 V 1420 Multilabel Counter. The IC50 values were determined from the percent inhibition versus concentration data using a sigmoidal non-linear regression analysis based on four parameters with XLfit 4.1 software.

[4] = tested on: HCV genotype 1a H77 strain subgenomic luciferase replicon (H1a-luc) in Huh-7 cells; assay: HCV luciferase replicon assay, genotype 1a (H1a-luc); assay type: cell-based; conditions: for FS (1a/1b): EC50 against genotype 1a HCV divided by EC50 against genotype 1b, replicon luciferase assay; for EC50: genotype 1a H77 replicon, Huh-7 (H1a-luc), 72 hours, read-out: EC50 Against Relpicon 1a
Procedure: as §1

[5] = target: T2, HCV NS3-NS4A protease 3a (Hepatitis C virus genotype 3a, UniProt Q81258); assay: HCV protease assay (FRET peptide), genotype 3a; assay type: biochemical
T2 construct: HCV NS3-NS4A protease, which was produced according to the method of Taremi et al; made in house
Procedure: as §3

[6] = target: T3, HCV NS3-NS4A protease 2a (Hepatitis C virus genotype 2a, UniProt Q99IB8); assay: HCV protease assay (FRET peptide), genotype 2a; assay type: biochemical; conditions: genotype 2a protease; 60 min at 30° C.; read-out: IC50 Against HS3/4A 2a
T3 construct: HCV NS3-NS4A protease, which was produced according to the method of Taremi et al; made in house
Procedure: as §3

[7] = Cytotoxicity evaluation, Cell Titer 96 AQueous One Solution; assay type: cell-based, human; conditions: human; Zluc cells, cellular viability
Procedure: as §2

[8] = target: T4, HCV NS3-NS4A protease 4a (Hepatitis C virus genotype 4a, UniProt O39929); assay: HCV protease assay (FRET peptide), genotype 4a; assay type: biochemical; conditions: genotype 4a protease; 60 min at 30° C.; read-out: IC50 Against HS3/4A 4a
T4 construct: HCV NS3-NS4A protease, which was produced according to the method of Taremi et al; made in house
Procedure: as §3

[9] = target: T5, HCV NS3-NS4A protease 5a (Hepatitis C virus genotype 5a, UniProt O39928); assay: HCV protease assay (FRET peptide), genotype 5a; assay type: biochemical; conditions: genotype 5a protease; 60 min at 30° C.; read-out: IC50 Against HS3/4A 5a
T5 construct: HCV NS3-NS4A protease, which was produced according to the method of Taremi et al; made in house
Procedure: as §3

[10] = target: T6, HCV NS3-NS4A protease 6a (Hepatitis C virus genotype 6a, UniProt O39927); assay: HCV protease assay (FRET peptide), genotype 6a; assay type: biochemical; conditions: genotype 6a protease; 60 min at 30° C.; read-out: IC50 Against HS3/4A 6a
T6 construct: HCV NS3-NS4A protease, which was produced according to the method of Taremi et al; made in house
Procedure: as §3

[11] = target: T7, HCV NS3-NS4A protease 1a (Hepatitis C virus genotype 1a, UniProt P27958); assay: HCV protease assay (FRET peptide), genotype 1a; assay type: biochemical; conditions: genotype 1a protease; 60 min at 30° C.; read-out: IC50 Against HS3/4A 1a
T7 construct: HCV NS3-NS4A protease, which was produced according to the method of Taremi et al; made in house
Procedure: as §3

[12] = tested on: genotype 1b HCV replicon in Zluc cells; assay: Genotype 1b HCV replicon luciferase assay with 10% FCS or 45% human serum; assay type: cell-based; conditions: EC50 in presence of 45% HS divided by EC50 in presence of 10% FCS
Procedure: as §1
In Table 1, the values of FS with 45% HS were determined using the genotype 1b HCV replicon luciferase screening assay using Zluc cells, except that activity in the presence of 10% fetal calf serum (FCS) or 45% human serum (HS) was determined in parallel. The fold shift (FS) with 45% HS is the EC50 value in the presence of 45% HS divided by the EC50 value in the presence of 10% FCS. FS (1a/1b) is the EC50 value against genotype 1a HCV divided by the EC50 value against the genotype 1b in the replicon luciferase screening assay.

T1 sequence (Q9WMX2 1658-1711): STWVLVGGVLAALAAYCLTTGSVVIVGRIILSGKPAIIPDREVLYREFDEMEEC
T1 sequence (Q9WMX2 1027-1208): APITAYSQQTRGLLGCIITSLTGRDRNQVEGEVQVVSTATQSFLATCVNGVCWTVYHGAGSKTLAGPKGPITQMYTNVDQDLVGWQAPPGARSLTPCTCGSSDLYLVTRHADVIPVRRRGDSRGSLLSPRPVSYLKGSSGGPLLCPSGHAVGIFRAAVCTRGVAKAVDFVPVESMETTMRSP
T6 sequence (O39927 1031-1212): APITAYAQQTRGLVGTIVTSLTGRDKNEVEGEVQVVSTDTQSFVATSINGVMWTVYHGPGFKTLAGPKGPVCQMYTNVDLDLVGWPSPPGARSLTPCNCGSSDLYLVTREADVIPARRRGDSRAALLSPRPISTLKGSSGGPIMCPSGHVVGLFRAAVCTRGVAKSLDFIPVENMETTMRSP
T6 sequence (O39927 1662-1715): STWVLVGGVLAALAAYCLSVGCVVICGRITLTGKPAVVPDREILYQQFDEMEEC
T5 sequence (O39928 1659-1712): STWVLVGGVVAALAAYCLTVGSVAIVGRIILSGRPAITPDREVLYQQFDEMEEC
T5 sequence (O39928 1028-1209): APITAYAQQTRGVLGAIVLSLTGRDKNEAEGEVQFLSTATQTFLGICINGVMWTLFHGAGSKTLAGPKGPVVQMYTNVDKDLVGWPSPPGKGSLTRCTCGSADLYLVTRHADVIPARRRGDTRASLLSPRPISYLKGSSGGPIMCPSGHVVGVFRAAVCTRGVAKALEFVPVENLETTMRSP
T2 sequence (Q81258 1664-1717): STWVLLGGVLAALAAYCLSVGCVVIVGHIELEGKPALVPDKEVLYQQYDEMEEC
T2 sequence (Q81258 1033-1214): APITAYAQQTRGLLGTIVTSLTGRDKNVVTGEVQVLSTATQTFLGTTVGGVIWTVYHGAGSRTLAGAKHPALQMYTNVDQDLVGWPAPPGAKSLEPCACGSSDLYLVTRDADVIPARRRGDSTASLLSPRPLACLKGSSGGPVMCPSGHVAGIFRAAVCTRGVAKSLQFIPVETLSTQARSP
T7 sequence (P27958 1027-1208): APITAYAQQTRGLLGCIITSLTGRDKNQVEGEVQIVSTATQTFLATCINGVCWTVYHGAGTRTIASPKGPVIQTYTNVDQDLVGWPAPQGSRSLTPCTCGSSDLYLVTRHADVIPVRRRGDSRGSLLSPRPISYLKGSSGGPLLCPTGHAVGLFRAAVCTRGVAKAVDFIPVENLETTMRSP
T7 sequence (P27958 1658-1711): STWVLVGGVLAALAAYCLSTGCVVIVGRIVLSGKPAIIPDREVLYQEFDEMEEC
T4 sequence (O39929 1658-1711): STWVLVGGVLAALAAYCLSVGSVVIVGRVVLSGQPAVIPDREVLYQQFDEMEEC
T4 sequence (O39929 1027-1208): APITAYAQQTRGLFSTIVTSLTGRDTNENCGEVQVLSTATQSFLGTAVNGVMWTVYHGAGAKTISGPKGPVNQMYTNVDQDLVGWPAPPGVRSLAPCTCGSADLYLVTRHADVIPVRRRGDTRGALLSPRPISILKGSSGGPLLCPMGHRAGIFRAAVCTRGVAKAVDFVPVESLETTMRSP
T3 sequence (Q99IB8 1662-1715): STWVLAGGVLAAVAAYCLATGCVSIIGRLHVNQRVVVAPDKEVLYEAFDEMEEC
T3 sequence (Q99IB8 1031-1212): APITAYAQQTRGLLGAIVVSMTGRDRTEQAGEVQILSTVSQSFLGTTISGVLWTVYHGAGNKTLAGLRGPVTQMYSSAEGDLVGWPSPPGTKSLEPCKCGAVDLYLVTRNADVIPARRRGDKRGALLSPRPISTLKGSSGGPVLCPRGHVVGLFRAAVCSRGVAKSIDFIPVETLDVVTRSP

Molecule | EC50 [1] [nM] | CC50 [2] [nM] | IC50 ([3]; genotype 1b protease, 60 min at 30° C., read-out: IC50 Against HS3/4A 1b) [nM] | FS (1a/1b) [4] | EC50 [4] [nM] | IC50 [5] [nM] | IC50 [6] [nM] | EC50 ([1]; Hepatitis C virus) [nM] | CC50 [7] [nM] | IC50 [8] [nM] | IC50 [9] [nM] | IC50 [10] [nM] | IC50 [11] [nM] | IC50 [3] [nM] | FS with 45% HS [12] | EC50 ([4]; Hepatitis C virus) [nM]
(1R,4R,6R,15R,18S)-1-methyl-cyclopropanesulfonic acid [18-(2,5-diphenyl-thiazol-4-yloxy)-13-methyl-2,14-dioxo-3,13-diaza-tricyclo[13.4.0.0]nonadec-7-ene-4-carbonyl]-amide [Compound D103] | 10 to 100 | > 10000 | 10 to 100 | 113 | 1000 to 10000 |  |  |  |  |  |  |  |  |  |  | 
C#Cc1csc(-c2cc(O[C@H]3CC[C@H]4C(=O)N(C)CCCC/C=C\[C@@H]5C[C@@]5(C(=O)NS(=O)(=O)C5(C)CC5)NC(=O)[C@@H]4C3)c3ccc(OC)c(C)c3n2)n1 [Compound 17a, (1R,4R,6R,15R,18S)-1-methyl-cyclopropanesulfonic acid {18-[2-(4-ethynyl-thiazol-2-yl)-7-methoxy-8-methyl-quinolin-4-yloxy]-13-methyl-2,14-dioxo-3,13-diaza-tricyclo[13.4.0.0]nonadec-7-ene-4-carbonyl}-amide, reference compound] |  |  |  | 8 |  | 10 to 100 | < 10 | < 10 | > 10000 | < 10 | < 10 | < 10 | < 10 | < 10 | 29 | < 10
